Measurements: article PMC11207729, “Unveiling Anticancer Potential of COX-2 and 5-LOX Inhibitors: Cytotoxicity, Radiosensitization Potential and Antimigratory Activity against Colorectal and Pancreatic Carcinoma” (Pharmaceutics, 2024)
Values joined by “and” are separate entries in the source; they are usually repeats but may differ in a detail not shown here. Identical values can stand only once. “Also recorded” adds a separate entry of the source.

Tests used:
HCT 116 cells [1] = assay: MTT cytotoxicity assay, HCT 116; format: cell-based, human; settings: for IC50: Homo sapiens, HCT-116, MTT, 72 h after treatment, mean ± SEM; for Selectivity index (IC50 normal cell line/IC50 cancer cell lines), HCT 116: MRC-5 / HCT 116, in brackets
Description: (§1) SW620 cells were cultured in Dulbecco’s Modified Eagle’s medium (DMEM, Sigma-Aldrich Chemie GmbH, Steinheim, Germany) and supplemented in the same manner as the previously mentioned cell lines. Cells were grown in cell culture flasks T25 (Sarstedt AG & Co., Nümbrecht, Germany) at appropriate cell densities in the culture medium prior to exposure to treatments. Stock solutions of each compound, prepared in DMSO, were diluted in the culture medium to obtain the appropriate final concentrations.
(§2) The viability of the control and cells treated with the tested compounds was determined by MTT assay. Cells were seeded in 96-well plates at a density of 2000 cells/well, allowed to attach overnight, and then treated with rising concentrations of testing compounds. The ability of viable cells to reduce 3-(4,5-dimethylthiazol-2-yl)-2,5-diphenyltetrazolium bromide into blue-purple formazan crystals, was measured 72 h after the treatments. Namely, l mg/mL of MTT reagent (Sigma-Aldrich Chemie GmbH, Steinheim, Germany) was added to each well and incubated for an additional 4 h. Finally, upon removal of the medium containing MTT, 200 µL of DMSO was added to each well.

BxPC-3 cells [2] = assay: SRB assay, compound plus γ-radiation, BxPC-3; format: cell-based, human; settings: IC50 concentration 24 h before 2 Gy γ-radiation, SRB 72 h after irradiation
Description: (§3) In the experiments involving irradiation, cells were irradiated at room temperature, in the vertical position with the cell monolayer facing ^60Co γ-rays (CIRUS-Cis Biointernational). The irradiation of samples was performed in Vinča Institute of Nuclear Sciences, Belgrade, Serbia. In all experiments, a clinically relevant radiation dose of 2 Gy with the dose rate of ~1 Gy/min was applied.
(§4) For the evaluation of cell viability after treatments with radiation as well as after combined treatments, a sulforhodamine B (SRB) protein binding assay was used. This assay is based on the staining of cellular proteins. Maintaining conditions were identical to that of MTT assay. The cells were pretreated with IC50 concentrations of tested compounds for 24 h before irradiations. Following the 72 h post-irradiation incubation time under standard conditions (5% CO2, 37 °C) cells were fixed by protein precipitation with 10% trichloroacetic acid (TCA) at 4 °C for 1 h. Plates were rinsed with distillated water and stained with 0.4% SRB (Sigma-Aldrich Chemie GmbH, Steinheim, Germany) in 1% acetic acid, for 15 min at room temperature. Excess stain was removed by washing the wells in 1% acetic acid. […] The absorbance of each well was measured using a microplate reader (Wallac VICTOR2 1420 Multilabel counter, PerkinElmer, Turku, Finland) at a test wavelength of 550 nm.

BxPC-3 cells [3] = assay: MTT cytotoxicity assay, BxPC-3; format: cell-based, human; settings: for IC50: Homo sapiens, BXPC-3, 72 h, MTT, 72 h after treatment, mean ± SEM; for Selectivity index (IC50 normal cell line/IC50 cancer cell lines), BxPC-3: MRC-5 / BxPC-3, in brackets
Description: as §1, §2

MRC-5 cells = assay: MTT cytotoxicity assay, MRC-5 normal fibroblasts; format: cell-based, human; settings: Homo sapiens, MRC5, 72 h, MTT, 72 h after treatment, mean ± SEM; healthy cell line
HT-29 cells [4] = assay: MTT cytotoxicity assay, HT-29; format: cell-based, human; settings: for IC50: Homo sapiens, HT-29, MTT, 72 h after treatment, mean ± SEM; for Selectivity index (IC50 normal cell line/IC50 cancer cell lines), HT-29: MRC-5 / HT-29, in brackets
Description: as §1, §2

COX-2 = tested on: COX-2; parameters: method as in PMID 37111306; settings: cited from earlier work
HT-29 cells [5] = assay: SRB assay, compound plus γ-radiation, HT-29; format: cell-based, human; settings: IC50 concentration 24 h before 2 Gy γ-radiation, SRB 72 h after irradiation
Description: as §3
For the evaluation of cell viability after treatments with radiation as well as after combined treatments, a sulforhodamine B (SRB) protein binding assay was used. This assay is based on the staining of cellular proteins. Maintaining conditions were identical to that of MTT assay. The cells were pretreated with IC50 concentrations of tested compounds for 24 h before irradiations. Following the 72 h post-irradiation incubation time under standard conditions (5% CO2, 37 °C) cells were fixed by protein precipitation with 10% trichloroacetic acid (TCA) at 4 °C for 1 h. Plates were rinsed with distillated water and stained with 0.4% SRB (Sigma-Aldrich Chemie GmbH, Steinheim, Germany) in 1% acetic acid, for 15 min at room temperature. Excess stain was removed by washing the wells in 1% acetic acid. After being rinsed, microwell plates were air dried until no staining moisture was visible. Bound dye was dissolved in 10 mM unbuffered Tris base (pH 10.5) for 5 min on a gyratory shaker. The absorbance of each well was measured using a microplate reader (Wallac VICTOR2 1420 Multilabel counter, PerkinElmer, Turku, Finland) at a test wavelength of 550 nm.

HCT 116 cells [6] = assay: SRB assay, compound plus γ-radiation, HCT 116; format: cell-based, human; settings: IC50 concentration 24 h before 2 Gy γ-radiation, SRB 72 h after irradiation
Description: as §4, with “In the experiments involving irradiation, cells were irradiated at room temperature, in the vertical position with the cell monolayer facing ^60Co γ-rays (CIRUS-Cis Biointernational). The irradiation of samples was performed in Vinča Institute of Nuclear Sciences, Belgrade, Serbia. In all experiments, a clinically relevant radiation dose of 2 Gy with the dose rate of ~1 Gy/min was applied. For” for “For”

SW620 cells [7] = assay: Cytotoxicity in SW620 cells after 24 h treatment (Table S2); format: cell-based; settings: Homo sapiens, SW-620, read-out: IC50 (µM) following 24h treatment in SW620 cells
SW620 cells [8] = assay: Wound-healing assay; format: cell-based, human; settings: 25 μM
Description: The migratory potential of SW620 cells (human colon carcinoma cell line) was evaluated by a wound-healing assay. Cells were seeded in density of 300,000 cells per well in 24-well tissue culture microplates and grown for 24 h in DMEM medium supplemented with 10% FBS, penicillin/streptomycin and L-glutamine at 37 °C in a humidified atmosphere containing 5% CO2. Upon reaching confluence, a uniform wound was scratched into a monolayer of each well with a sterile plastic 200 μL micropipette tip. After wounding, the medium was replaced and cells were further treated with 25 μM of compounds 1, 2, 3, and 5 for 24 h and 48 h. Wound closure was monitored by imaging cells at 4× magnification using the ImageXpress® Pico Automated Cell Imaging System (Molecular Devices®, San Jose, CA, USA) immediately (T0), and at 24 h (T24) and 48 h (T48) after wounding. The captured images were analyzed by ImageJ software v. 1.52p (U.S. National Institutes of Health, Bethesda, MD, USA) to measure the degree of closure of the wounded area. Independent experiments were performed three times.

in vivo = settings: in vivo
Description: (§5) Wild-type (AB) zebrafish embryos, kindly provided by Dr. Ana Cvejić (Wellcome Trust Sanger Institute, Cambridge, UK), were raised to adult stage in a temperature- and light-controlled zebrafish facility at 28 °C and a standard 14:10 h light–dark photoperiod. Fish were fed with commercial dry food (SDS200 and SDS300 granular food; Special Diet Services, Essex; UK and TetraMinTM flakes; Tetra Melle, Germany) twice a day, and with Artemia nauplii daily.
(§6) Embryos produced by pairwise mating were washed to remove debris, distributed at 10 per well into 24-well plates containing 1 mL of E3 medium (5 mM NaCl, 0.17 mM KCl, 0.33 mM CaCl2 and 0.33 mM MgSO4 in distilled water) and maintained at 28 °C. […] Dead embryos were recorded and discarded every 24 h. […] Experiments were performed in triplicate using 30 embryos for each concentration. At 120 hpf, embryos were anesthetized by the addition of 0.1% (w/v) tricaine solution (Sigma-Aldrich, St. Louis, MO, USA), photographed, and killed by freezing at −20 °C for ≥24 h.

[9] = tested on: zebrafish (Danio rerio) embryos; assay: in vivo; settings: embryos exposed for five days, up to 50 µM; cardiotoxicity, hepatotoxicity, malformations
Description: as §5, §6

5-LOX = tested on: 5-LOX; parameters: method as in PMID 37111306; settings: cited from earlier work

Row | Compound | IC50 (HCT 116 cells [1]) | Selectivity index (IC50 normal cell line/IC50 cancer cell lines), HCT 116 (HCT 116 cells [1]) | cell proliferation, combined treatment versus radiation alone, BxPC-3 (BxPC-3 cells [2]) | IC50 (BxPC-3 cells [3]) | Selectivity index (IC50 normal cell line/IC50 cancer cell lines), BxPC-3 (BxPC-3 cells [3]) | IC50 (MRC-5 cells) | IC50 (HT-29 cells [4]) | Selectivity index (IC50 normal cell line/IC50 cancer cell lines), HT-29 (HT-29 cells [4]) | IC50 (COX-2) | cell proliferation, combined treatment versus radiation alone, HT-29 (HT-29 cells [5]) | cell proliferation, combined treatment versus radiation alone, HCT 116 (HCT 116 cells [6]) | IC50 (SW620 cells [7]) | Relative Wound Closure (%) 24 h (SW620 cells [8]; SW620, 24 h relative to T0, mean ± SEM, control 17.87 ± 3.48) | Relative Wound Closure (%) 48 h (SW620 cells [8]; SW620, 48 h relative to T0, mean ± SEM, control 24.51 ± 1.39) | LC50 (in vivo) | toxic response / adverse side effects in embryos [9] | IC50 (5-LOX)
1 | C=CCNC(=O)c1cc(C(C)(C)C)c(O)c(C(C)(C)C)c1 [Compound 6] | 23 ± 3.27 µM | > 4.35 | statistically significant change with respect to radiation | 8.63 ± 0.77 µM | > 11.59 | > 100 µM | 24.8 ± 5.4 µM | > 4.04 | 6.89 µM | statistically significant change with respect to radiation |  |  |  |  |  |  | 
2 | O=C(NO)NCc1ccccc1Nc1c(Cl)cccc1Cl [Compound 3] | 40.8 ± 1.95 µM | > 2.45 | significant change in cell inactivation | 34.3 ± 1.79 µM | > 2.91 | > 100 µM | 64.6 ± 3.41 µM | > 1.55 |  |  | lower in comparison to cells that were only irradiated | 169 ± 5.7 µM | 3.86% and 3.86 ± 0.19% | 7.68% and 7.68 ± 2.99% | > 50 µM | did not elicit a toxic response; also recorded: no adverse side effects | 
3 | C#CCNC(=O)c1cc(C(C)(C)C)c(O)c(C(C)(C)C)c1 [Compound 7] | 30.2 ± 5.07 µM | > 3.31 |  | 29.2 ± 1.56 µM | > 3.42 | > 100 µM | > 100 µM |  |  | significantly inactivated HT-29 cells |  |  |  |  |  |  | 12.6 µM
